Tests used:
[1] = test system: peripheral lymphocyte counts; assay: Recovery of absolute lymphocyte counts after S1P modulator dosing in healthy volunteers; assay type: in vivo, human; conditions: single 1 mg FTY720, BAF312 multiple doses for 28 days, single 3 mg KRP203
Description: Mocravimod is particularly preferred. […] A measurable parameter that determines maintenance of the mode of action, i.e., sequestering of lymphocytes in secondary lymphoid organs and bone marrow, is reduction of peripheral lymphocyte counts. Recovery of absolute lymphocyte counts to 80% of normal counts after a single 1 mg dose of FTY720, multiple dose applications of BAF312 for 28 days, or a single 3 mg dose of KRP203 was reached after 8, 7 and more than 10 days, respectively.

[2] = test system: acute GVHD after allogeneic HSCT; conditions: preclinical; cited from earlier work
S1PR1 versus S1PR3-5 = conditions: cited from earlier work
[3] = Pharmacokinetics of [14C]KRP203 radioactivity in dogs; assay type: in vivo, dog; conditions: oral administration
Plasma protein binding = assay type: in vitro ADME; conditions: human plasma
[4] = Tissue distribution of [14C]KRP203 radioactivity in Wistar rats; assay type: in vivo, rat
Source text: Highly exposed tissues were liver and to a smaller extent kidney, small intestine, adrenal gland, lungs, spleen and mesenteric lymph nodes.

[5] = Pharmacokinetics of [14C]KRP203 radioactivity in rats; assay type: in vivo, rat
Source text: Following intravenous administration of [14C]KRP203, radioactivity was readily distributed to rat and dog tissues with similar volume of distribution (Vss=8.0 L/kg in rat).

chromosome aberration = assay: In vitro genotoxicity: chromosome aberration; assay type: cell-based
[6] = Plasma toxicokinetics in dog
[7] = test system: GPCRs, ion channels, transporters, nuclear receptors and enzymes; assay: Off-target binding assays; conditions: compared to estimated free plasma concentration at 3 mg/day
Source text: Thus it is unlikely that secondary pharmacology effects should arise due to non-specific receptor activation at therapeutic doses.

bacterial mutation = assay: In vitro genotoxicity: bacterial mutation; assay type: cell-based
[8] = In vivo plasma ratio of phosphorylated KRP203 to KRP203 in rat
Description: (§1) The in vivo ratio of phosphorylated KRP203 to KRP203 in plasma was up to 45 in rat. As the metabolic activities on KRP203 in human blood and hepatocytes were lower than those of other species, the metabolic clearance of KRP203 in man is expected be lower than that in rat and dog. […] KRP230 formed low amounts of covalent drug-protein adducts in human hepatocytes in vitro. Due to the low levels detected ([…] at 3 hours) in-vitro adduct formation is unlikely to be associated with clinical relevant findings at low dose levels (e.g. below 10 mg).

[9] = Plasma toxicokinetics in rat
S1P1 [10] = target: T1, S1P1 (Homo sapiens, UniProt P21453); assay: S1P1 internalization; assay type: cell-based
Source text: KRP203 reduces lymphocyte counts in peripheral blood by more than 80%.

[11] = In vitro metabolite profile in human hepatocytes; assay type: in vitro ADME
S1P4 = S1P4 (Homo sapiens, UniProt O95977); assay: S1P receptor agonism on S1P4; assay type: biochemical
Source text: (§2) KRP203 (mocravimod) is an immunomodulator that selectively targets sphingosine 1-phosphate (S1P) receptors via its phosphorylated active metabolite. […] The therapeutic effects are believed to be due to the prevention of effector lymphocyte recirculation from lymphatic tissue to susceptible target organs such as the gut, skin or CNS.

[12] = test system: guinea pig papillary muscle preparation; assay: APD in guinea pig papillary muscle preparation; conditions: concentrations of 3 μM
Source text: (§3) Based on the available in vitro and in vivo data, except for the potential to cause a negative chronotropic effect and some mild increase in blood pressure, there is no indication that KRP203 would cause arrhythmia or QT prolongation in man.

[13] = target: CYP3A4 via the human PXR receptor (Homo sapiens, UniProt O75469); assay: CYP3A4 induction via PXR; assay type: in vitro ADME
hS1P3 = hS1P3 (Homo sapiens, UniProt Q99500); assay: S1P receptor agonism on S1P3; assay type: biochemical
Source text: as §2

[14] = test system: human cytochrome P450 isoenzymes; assay: Inhibition of cytochrome P450 isoenzymes in vitro; assay type: in vitro ADME
Description: as §1
The weak inhibitory effect of ciclosporin on hepatic CYP3A4 is unlikely to relevantly impact the PK of KRP203.

S1P1 [15] = target: T1, S1P1; assay: S1P receptor agonism on S1P1; assay type: biochemical
Source text: as §2

hERG channels = hERG channels (Homo sapiens, UniProt Q12809); assay: hERG channel inhibition in vitro; assay type: biochemical; conditions: up to the highest concentration tested, 3 μM
Source text: as §3

S1P5 = S1P5 (Homo sapiens, UniProt Q9H228); assay: S1P receptor agonism on S1P5; assay type: biochemical
Source text: as §2

T1 sequence (P21453 whole entry): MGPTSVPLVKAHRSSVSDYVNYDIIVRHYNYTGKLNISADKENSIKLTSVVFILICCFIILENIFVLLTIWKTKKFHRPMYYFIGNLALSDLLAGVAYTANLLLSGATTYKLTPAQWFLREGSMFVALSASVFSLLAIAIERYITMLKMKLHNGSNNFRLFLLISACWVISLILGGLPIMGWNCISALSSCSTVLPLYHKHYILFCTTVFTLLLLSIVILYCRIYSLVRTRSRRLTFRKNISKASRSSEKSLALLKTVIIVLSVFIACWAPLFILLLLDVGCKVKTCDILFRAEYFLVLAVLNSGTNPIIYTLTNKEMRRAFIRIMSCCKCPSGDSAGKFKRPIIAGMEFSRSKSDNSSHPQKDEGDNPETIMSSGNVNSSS
Chain of S1P4 (O95977 whole entry): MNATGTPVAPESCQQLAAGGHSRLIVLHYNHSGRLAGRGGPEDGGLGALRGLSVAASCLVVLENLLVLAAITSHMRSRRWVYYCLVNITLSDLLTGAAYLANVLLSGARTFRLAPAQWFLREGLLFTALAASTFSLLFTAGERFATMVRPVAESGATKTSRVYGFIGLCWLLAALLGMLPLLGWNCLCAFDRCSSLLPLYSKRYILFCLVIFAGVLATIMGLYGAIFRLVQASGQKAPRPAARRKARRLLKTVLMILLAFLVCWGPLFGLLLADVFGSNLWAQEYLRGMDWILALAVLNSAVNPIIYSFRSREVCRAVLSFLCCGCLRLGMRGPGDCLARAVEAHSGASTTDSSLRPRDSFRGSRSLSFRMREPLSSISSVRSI
Chain of S1P5 (Q9H228 whole entry): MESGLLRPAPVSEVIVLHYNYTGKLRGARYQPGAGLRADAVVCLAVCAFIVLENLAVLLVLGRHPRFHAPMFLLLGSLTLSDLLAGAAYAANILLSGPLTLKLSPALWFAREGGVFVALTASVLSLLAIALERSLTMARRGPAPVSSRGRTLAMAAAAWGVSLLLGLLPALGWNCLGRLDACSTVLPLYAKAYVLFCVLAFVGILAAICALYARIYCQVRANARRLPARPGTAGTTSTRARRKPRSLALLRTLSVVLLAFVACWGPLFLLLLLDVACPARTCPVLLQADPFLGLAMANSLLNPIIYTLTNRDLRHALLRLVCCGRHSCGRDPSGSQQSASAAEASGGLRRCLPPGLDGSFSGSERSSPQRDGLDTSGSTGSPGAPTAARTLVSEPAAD
Chain of hS1P3 (Q99500 whole entry): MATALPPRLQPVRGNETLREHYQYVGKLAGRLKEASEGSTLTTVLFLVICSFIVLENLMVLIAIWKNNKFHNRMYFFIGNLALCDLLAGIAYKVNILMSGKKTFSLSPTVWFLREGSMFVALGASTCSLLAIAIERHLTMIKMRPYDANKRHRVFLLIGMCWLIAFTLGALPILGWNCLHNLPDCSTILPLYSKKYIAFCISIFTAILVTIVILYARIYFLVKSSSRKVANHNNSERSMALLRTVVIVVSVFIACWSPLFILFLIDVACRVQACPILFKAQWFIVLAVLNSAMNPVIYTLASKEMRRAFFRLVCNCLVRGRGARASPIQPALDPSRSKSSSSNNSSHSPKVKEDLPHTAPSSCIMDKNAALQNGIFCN
Chain of CYP3A4 via the human PXR receptor (O75469 whole entry): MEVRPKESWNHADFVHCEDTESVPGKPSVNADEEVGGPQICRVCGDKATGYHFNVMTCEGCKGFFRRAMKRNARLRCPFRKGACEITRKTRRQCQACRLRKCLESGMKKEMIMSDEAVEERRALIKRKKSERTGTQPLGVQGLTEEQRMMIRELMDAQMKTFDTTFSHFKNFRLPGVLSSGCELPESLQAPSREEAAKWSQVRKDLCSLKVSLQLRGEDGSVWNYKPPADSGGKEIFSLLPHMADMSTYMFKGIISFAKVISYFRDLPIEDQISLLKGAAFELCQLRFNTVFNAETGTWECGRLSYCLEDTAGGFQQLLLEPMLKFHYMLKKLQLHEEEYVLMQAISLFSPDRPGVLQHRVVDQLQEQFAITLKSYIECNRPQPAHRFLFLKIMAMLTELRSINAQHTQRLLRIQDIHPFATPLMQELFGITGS
Chain of hERG channels (Q12809 whole entry): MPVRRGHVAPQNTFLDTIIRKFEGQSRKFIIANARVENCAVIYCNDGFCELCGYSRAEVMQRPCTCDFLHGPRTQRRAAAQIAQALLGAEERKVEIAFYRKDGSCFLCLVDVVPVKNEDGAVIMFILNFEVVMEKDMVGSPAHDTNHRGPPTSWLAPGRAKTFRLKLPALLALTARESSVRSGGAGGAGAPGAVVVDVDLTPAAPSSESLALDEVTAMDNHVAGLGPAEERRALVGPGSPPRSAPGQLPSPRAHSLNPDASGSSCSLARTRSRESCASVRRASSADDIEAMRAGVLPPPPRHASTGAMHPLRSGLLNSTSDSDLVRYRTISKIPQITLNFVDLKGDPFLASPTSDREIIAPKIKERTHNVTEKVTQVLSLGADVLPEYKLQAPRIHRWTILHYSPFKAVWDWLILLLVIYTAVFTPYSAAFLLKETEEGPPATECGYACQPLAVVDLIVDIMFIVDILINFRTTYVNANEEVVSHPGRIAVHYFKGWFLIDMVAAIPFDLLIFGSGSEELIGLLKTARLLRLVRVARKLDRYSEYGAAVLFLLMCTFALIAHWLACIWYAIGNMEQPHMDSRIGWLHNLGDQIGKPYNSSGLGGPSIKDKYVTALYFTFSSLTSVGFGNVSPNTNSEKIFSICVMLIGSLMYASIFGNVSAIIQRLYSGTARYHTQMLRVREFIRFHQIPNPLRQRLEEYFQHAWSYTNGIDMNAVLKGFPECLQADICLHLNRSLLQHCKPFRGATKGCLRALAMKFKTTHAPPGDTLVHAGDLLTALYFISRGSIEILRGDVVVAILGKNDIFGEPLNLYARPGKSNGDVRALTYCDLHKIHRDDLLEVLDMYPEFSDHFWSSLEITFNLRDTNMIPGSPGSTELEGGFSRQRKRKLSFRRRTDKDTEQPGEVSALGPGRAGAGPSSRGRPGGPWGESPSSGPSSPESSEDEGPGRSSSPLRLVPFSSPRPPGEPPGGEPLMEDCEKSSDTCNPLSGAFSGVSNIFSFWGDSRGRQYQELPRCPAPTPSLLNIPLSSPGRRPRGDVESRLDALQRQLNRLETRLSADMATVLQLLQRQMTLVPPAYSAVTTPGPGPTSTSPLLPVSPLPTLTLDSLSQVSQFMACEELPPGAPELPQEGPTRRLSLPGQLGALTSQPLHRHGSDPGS

## CCc1cc(/C(C)=N/OCc2ccc(C3CCCCC3)c(C(F)(F)F)c2)ccc1CN1CC(C(=O)O)C1 [BAF312]
[1]
  Recovery of absolute lymphocyte counts to 80% of normal counts: 7 days

## CCCCCCCCc1ccc(CCC(N)(CO)CO)cc1 [FTY720]
[2]
  effect on acute GVHD: ameliorate acute GVHD
[1]
  Recovery of absolute lymphocyte counts to 80% of normal counts: 8 days
S1PR1 versus S1PR3-5
  S1P receptor selectivity: poor selectivity for S1PR1 versus S1PR3-5

## NC(CO)(CO)CCc1ccc(Sc2cccc(OCc3ccccc3)c2)cc1Cl [[14C]KRP203]
[3]
  radioactivity Tmax: 9.3 h
Plasma protein binding
  fraction unbound: < 0.01
[4]; 14-day multiple oral dose 0.5 mg/kg/day
  total radioactivity in brain relative to plasma: accumulated more in brain relative to plasma and eliminated much slower
[4]; until 24 h post-dose after single administration
  radioactivity in CNS tissues (cerebrum, cerebellum and medulla oblongata) versus plasma: lower than in plasma
[5]; intravenous administration, rat
  volume of distribution Vss: 8.0 L/kg
[5]; oral administration, male rats
  radioactivity Tmax: 7 h

## KRP203-phosphate
Chromosome aberration
  genotoxic potential: no evidence for a genotoxic potential
[6]
  KRP203-phosphate/KRP203 ratio (based on AUC0-24 h): 1.4-6.6
  accumulation after repeated dosing (4 and 13 weeks): no evidence of accumulation
[6]; single and multiple doses (4 and 13 weeks)
  proportionality between exposure and dose: trend for an under proportionality at all dose levels
[7]
  safety margins in off-target binding assays: large safety margins
Bacterial mutation
  genotoxic potential: no evidence for a genotoxic potential
[8]
  in vivo ratio of phosphorylated KRP203 to KRP203 in plasma: up to 45
[9]
  KRP203-phosphate/KRP203 ratio (based on AUC0-24 h): 10.9-19.1
[9]; single and multiple administrations
  proportionality between exposure and dose: apparent proportionality between exposure and dose
S1P1 [10]
  internalization of the S1P1: long-lasting and complete internalization
[11]
  metabolite abundance in human hepatocytes: among the more prominent metabolites
S1P4
  agonist activity: potent agonist
[12]
  APD prolongation: No APD prolongation
[13]
  no significant induction of CYP3A4 via the human PXR receptor up to concentration: ≤ 50 µM
hS1P3
  agonist activity: potent but partial agonist
[14]
  effect on cytochromes P450 enzymes and transporters: lack of effect
S1P1 [15]
  agonist activity: potent agonist
hERG channels
  effects on hERG channels: did not show significant effects
S1P5
  agonist activity: potent but partial agonist

From patent US20230130403A1, “METHODS OF TREATMENT WITH S1P RECEPTOR MODULATORS” (PRIOTHERA SAS, priority 2021, published 2023)
